Results: article PMC4171664 (Diabetes, 2014)
No end group written: not given here.

molecular target: T1, I-A^g7 (Mus musculus, UniProt P04228+Q31135); type: binding, NOD mouse
T1 sequence (P04228 24-256): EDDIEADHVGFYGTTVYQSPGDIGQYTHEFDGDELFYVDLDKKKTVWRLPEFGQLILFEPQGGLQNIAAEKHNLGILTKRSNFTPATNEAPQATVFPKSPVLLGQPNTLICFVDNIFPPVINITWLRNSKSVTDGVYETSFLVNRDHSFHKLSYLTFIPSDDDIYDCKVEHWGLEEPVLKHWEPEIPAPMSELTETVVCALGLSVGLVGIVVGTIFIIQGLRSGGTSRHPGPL
T1 sequence (Q31135 1-263): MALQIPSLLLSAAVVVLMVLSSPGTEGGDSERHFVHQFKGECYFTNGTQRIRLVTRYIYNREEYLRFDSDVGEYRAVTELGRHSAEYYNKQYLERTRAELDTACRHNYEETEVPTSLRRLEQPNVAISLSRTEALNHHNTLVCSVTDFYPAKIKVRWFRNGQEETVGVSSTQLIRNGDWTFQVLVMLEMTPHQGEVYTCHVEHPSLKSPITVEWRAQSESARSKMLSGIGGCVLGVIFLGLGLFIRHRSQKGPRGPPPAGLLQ

**Q.** GYNHKDVQANASVR [201–214] was tested. Which IC50 did it give?
**A.** Its IC50 is 88.2 µM.

**Q.** Which IC50 does the source give for GHVAGSLAILTDAA [91–104] here?
**A.** The IC50 was 0.6 µM.

**Q.** For AVDGVISVHSLHIW [292–305], which IC50 is on record?
**A.** Its IC50 is 5.1 µM.

**Q.** With SVRAAFVHALGDVF [212–225] as the sequence, how does the IC50 read?
**A.** Its IC50 is 0.6 µM.

**Q.** RTGIAQALSSFDLHS [330–344] was tested. Which IC50 did it give?
**A.** Its IC50 is 5.7 µM.

**Q.** LTIQIESAADQDPSC [345–359] was tested. Which IC50 did it give?
**A.** Its IC50 is 1.1 µM.
